Residues, ends and D or L forms follow the SMILES beside them. *: point of attachment. pNA = O=[N+]([O-])c1ccc(N*)cc1; Bz = O=C(c1ccccc1)*
What was measured:
Format in all cases: biochemical
thrombin = assay: Measurement of the activity of thrombin with the compound as substrate (naphthol liberated, FVB colour, absorbance); settings: for relative sensitivity, Thrombin: methods of Example 3 and Comparative Example 2, p-nitroanilide substrate = 1.0
Procedure: To 1.7 ml of 50 mM phosphate buffer solution (pH 7.0) were added 0.1 ml of thrombin at various concentrations and 0.2 ml of N-benzoyl-L-phenylalanyl-L-valyl-L-arginine 1-naphthyl ester hydrochloride solution (1.5 mM), and the resulting mixture was subjected to incubation at 25° C. for 30 min. The mixture was cooled in iced water, and 0.1 ml of 1% FVB was added thereto. The resulting mixture was allowed to stand at 0° C. for 10 min, and 1 ml of glacial acetic acid was further added thereto. The color thus developed was measured as absorbance (505 nm) by means of a spectrophotometer, thereby determining the amount of the naphthol liberated by hydrolysis with the enzyme. As a control, the buffer solution same as above but free from thrombin was used. The amount of the naphthol liberated corresponded to the activity of the enzyme.
To 0.1 ml of thrombin were added 0.3 ml of Nα-tosyl-L-arginine methyl ester hydrochloride solution (10 micromoles/0.4 ml of 5% DMSO) and 0.6 ml of phosphate buffer solution (pH 7.4), and the resulting mixture was subjected to incubation at 37° C. for 30 min, after which 1.5 ml of a hydroxylamine solution (a mixture of equal amounts of 2 M NH2 OH hydrochloride and 3.5 M NaOH) was added thereto. The resulting mixture was allowed to stand at room temperature for 15 min. Thereto were added 1 ml of 18% trichloroacetic acid solution, 1 ml of 4 N hydrochloric acid, and 1 ml of 10% ferric chloride solution. The resulting mixture was thoroughly stirred and then centrifuged at 3,000 r.p.m. for 10 min. The color thus developed of the supernatant was measured as absorbance (530 l nm) by means of a spectrophotometer. The value obtained corresponds to the amount of the substrate remaining unhydrolyzed with thrombin, and therefore, and activity of the enzyme corresponds to the difference between the value obtained when no enzyme was used (control) and the value obtained after the enzyme reaction.
To 2.15 ml of […] tris HCl buffer solution (pH 8.0) were added 0.1 ml of thrombin at various concentrations and 0.25 ml of an N-benzoyl-L-phenylalanyl-L-valyl-L-arginine p-nitroanilide hydrochloride solution (1mM/H2 O), and the resulting mixture was subjected to incubation at 37° C. for 30 min. To the mixture was added 0.3 ml of glacial acetic acid, and the color developed was measured as absorbance (405 nm) by means of a spectrophotometer.

Kallikrein Plasma = assay: Measurement of the activity of plasma kallikrein with the compound as substrate; settings: methods of Example 3 and Comparative Example 2; p-nitroanilide substrate = 1.0
Kallikrein Tissue = assay: Measurement of the activity of tissue kallikrein with the compound as substrate; settings: methods of Example 3 and Comparative Example 2; p-nitroanilide substrate = 1.0
Factor Xa = assay: Measurement of the activity of Factor Xa with the compound as substrate; settings: methods of Example 3 and Comparative Example 2; p-nitroanilide substrate = 1.0
Urokinase = assay: Measurement of the activity of urokinase with the compound as substrate; settings: methods of Example 3 and Comparative Example 2; p-nitroanilide substrate = 1.0

Question: Which results are given for `CC(C)[C@H](NC(=O)[C@H](Cc1ccccc1)NC(=O)c1ccccc1)C(=O)N[C@@H](CCCNC(=N)N)C(=O)Nc1ccc([N+](=O)[O-])cc1.Cl` [N-benzoyl-L-phenylalanyl-L-valyl-L-arginine p-nitroanilide hydrochloride, reference compound] (Bz-Phe-Val-Arg-pNA)?
Answer: relative sensitivity, Thrombin (thrombin): 1.0; relative sensitivity, Kallikrein Plasma (Kallikrein Plasma): 1.0; relative sensitivity, Kallikrein Tissue (Kallikrein Tissue): 1.0; relative sensitivity, Factor Xa (Factor Xa): 1.0; relative sensitivity, Urokinase (Urokinase): 1.0

Question: How did the “relative sensitivity, Thrombin” value (thrombin) turn out when `CC(C)[C@H](NC(=O)[C@H](Cc1ccccc1)NC(=O)c1ccccc1)C(=O)N[C@@H](CCCNC(=N)N)C(=O)Oc1cccc2ccccc12.Cl` [N-benzoyl-L-phenylalanyl-L-valyl-L-arginine 1-naphthyl ester hydrochloride] was run?
Answer: 5.0

Question: And the “sensitivity relative to that of Nα-tosyl-L-arginine methyl ester” value (thrombin; thrombin activity measured with the compound as substrate)?
Answer: about 31 times

Question: And the “detection sensitivity relative to Comparative Example 2” value (thrombin; versus N-benzoyl-L-phenylalanyl-L-valyl-L-arginine p-nitroanilide hydrochloride as substrate, standard curves of the drawing)?
Answer: about 5 times

Question: What about the “detection sensitivity relative to Comparative Example 1” value (thrombin; versus Nα-tosyl-L-arginine methyl ester hydrochloride as substrate (hydroxamate method), standard curves of the drawing) of the same compound?
Answer: about 30 times

Question: What about the “relative sensitivity, Kallikrein Plasma” value (Kallikrein Plasma) of the same compound?
Answer: 12.5

Question: What about the “relative sensitivity, Kallikrein Tissue” value (Kallikrein Tissue) of the same compound?
Answer: 30

Question: What about the “relative sensitivity, Factor Xa” value (Factor Xa) of the same compound?
Answer: 15

Question: And the “relative sensitivity, Urokinase” value (Urokinase)?
Answer: 40

From US4308201A, “Phenylalanylvalylarginine derivative, process for producing same and method for measuring activity of enzymes using same” (Torii & Co., Ltd., priority 1978, dated 1981)
